# From paper PMC11480511 (Scientific Reports, 2024)
# Like-named read-outs stand apart in the source and are kept apart here.
# Experiments:
# [1] = tested on: P. aeruginosa ATCC 27,853; assay: Antibacterial screening, agar cup diffusion method; format: cell-based; conditions: Pseudomonas aeruginosa, ATCC27; Gram –ve strain; read-out: Minimum inhibitory concentrations (MIC, µM) P. aeruginosa ATCC 27,853
# [2] = tested on: K. pneumoniae ATCC 10,031; assay: Antibacterial screening, agar cup diffusion method; format: cell-based; conditions: read-out: Minimum inhibitory concentrations (MIC, µM) K. pneumoniae ATCC 10,031
# Description: (§7) Anti-bacterial activity of the recently synthesized compounds 3a-k was evaluated at AUMC (Assiut University Mycological Centre), Assiut, Egypt. Assays were done against Gram-negative strains of K. pneumoniae (ATCC 100310, E. coli (ATCC 25922), Pseudomonas aeruginosa (ATCC 27853) and the Gram-positive S. aureus (ATCC 6538) strain utilizing standard agar cup diffusion method. The isolates from the four bacterial species examined were kept in TSB (Trypticase Soya Broth, Becton and Dickinson) with 10% glycerol at -70 °C and then subcultured on TSA (Trypticase Soya Agar, Becton and Dickinson) and TSB for 24 h at 37 °C former to inoculation. Bacterial isolates were then plated on sterile petri plates with 1 × 10^8 CFU/mL (0.5 McFarland turbidity) and 20 mL of Mueller Hinton Agar media (Oxoid) was then loaded. To ensure that the microorganisms were evenly dispersed, the plates were gently rotated before being left to harden on a level surface. Four equally spaced spherical-shaped wells (10 mm diameter) were painstakingly drilled using a sterilized cork bore after media solidification. All tested compounds under test underwent two-fold serial dilutions in a sequential manner. Three replications of 100 µL of each concentration were added to a well using a micropipette. Plates were then incubated for 24-hour at 37 °C. The average of the inhibition zones was then calculated. To determine the MICs, the natural logarithm of each diluted test substance’s concentration was plotted against the average area of the related inhibition zone. Following that, a regression line was created and the intercept on the ‘ln concentration” axis was determined, and the antilogarithm was calculated to indicate the MIC value[34],[63].
# S. aureus ATCC 6538 = assay: Antibacterial screening, agar cup diffusion method; format: cell-based; conditions: Staphylococcus aureus, ATCC6538; Gram + ve strain; read-out: Minimum inhibitory concentrations (MIC, µM) S. aureus ATCC 6538
# Description: as §7
# Jurkat cells = conditions: cited from earlier work
# E. coli ATCC 25,922 = assay: Antibacterial screening, agar cup diffusion method; format: cell-based; conditions: Escherichia coli, ATCC25, Gram –ve strain; read-out: Minimum inhibitory concentrations (MIC, µM) E. coli ATCC 25,922
# Description: as §7
# human melanoma LOX IMVI [3] = conditions: read-out: In vitro cytotoxicity (IC50) LOX IMVI (µM ± SEM), MTT assay
# topoisomerase IIβ = molecular target: T1, topoisomerase IIβ (Homo sapiens, UniProt Q02880); assay: Topoisomerase II inhibition, human DNA topoisomerase Elisa kit; format: biochemical
# T1 construct: purchased
# Description: (§1) Two folds of serial dilution was accomplished after standards and the tested compounds were dissolved in sample diluent. Horseradish peroxidase (HRP-avidin) and biotin-conjugated antibody were diluted 10 times each. Each well received 100 µL of each concentration of the standard or test chemicals, which were then added and incubated at 37 °C for 60 min. […] The microtiter plate was rinsed three times and given room to aspirate. After that, the plate was incubated at 37 °C for 60 min with 100 µL of HRP-avidin solution added to each well. After that, the plate was aspirated and cleaned 5 times. Each well received 90 µL of TMB substrate, and the plate was incubated for 30 min. at 37 °C in a light-protected environment. Finally, stop solution (50 µL) was loaded, and within 5 min, the absorbance at 450 nm was measured spectrophotometrically.
# (§2) Topoisomerase enzyme assay
# (§3) Topoisomerase I and II inhibitory activity […]
# (§4) topoisomerase IIβ inhibitory activity utilizing the human DNA topoisomerase Elisa kit.
# (§5) Standards and the tested compound were dissolved in sample diluent and 2 folds serial dilution was achieved. Biotin-conjugated antibody and avidin conjugated Horseradish Peroxidase (HRP-avidin) were diluted to 10 folds. 100 μL of each concentration of standard or test compound were added to each well. Incubate at 37 °C for 1 h. The liquid in each well was removed. 10 0 μL of Biotin-conjugated antibody solution was added to each well followed by incubation for 1 h at 37 °C. The microtiter plate was allowed to aspirate and washed 3 times. 100 μL of avidin conjugated Horseradish Peroxidase (HRP -avidin) solution was added to each well and the plate was incubated for 1 h at 37 °C. The plate was aspirated and washed 5 times. 90 μL of TMB substrate were added to each well and the plate was incubated for 30 min at 37 °C and protected from light. 50 μL stop so lution was added. The absorbance was measured spectrophotometrically within 5 min at 450 nm .
# topoisomerase Iα = molecular target: T2, topoisomerase Iα (Homo sapiens, UniProt P11387); assay: Topoisomerase I inhibition, human DNA topoisomerase Elisa kit; format: biochemical; conditions: ± SEM
# T2 construct: purchased
# T2 sequence (P11387 1-765): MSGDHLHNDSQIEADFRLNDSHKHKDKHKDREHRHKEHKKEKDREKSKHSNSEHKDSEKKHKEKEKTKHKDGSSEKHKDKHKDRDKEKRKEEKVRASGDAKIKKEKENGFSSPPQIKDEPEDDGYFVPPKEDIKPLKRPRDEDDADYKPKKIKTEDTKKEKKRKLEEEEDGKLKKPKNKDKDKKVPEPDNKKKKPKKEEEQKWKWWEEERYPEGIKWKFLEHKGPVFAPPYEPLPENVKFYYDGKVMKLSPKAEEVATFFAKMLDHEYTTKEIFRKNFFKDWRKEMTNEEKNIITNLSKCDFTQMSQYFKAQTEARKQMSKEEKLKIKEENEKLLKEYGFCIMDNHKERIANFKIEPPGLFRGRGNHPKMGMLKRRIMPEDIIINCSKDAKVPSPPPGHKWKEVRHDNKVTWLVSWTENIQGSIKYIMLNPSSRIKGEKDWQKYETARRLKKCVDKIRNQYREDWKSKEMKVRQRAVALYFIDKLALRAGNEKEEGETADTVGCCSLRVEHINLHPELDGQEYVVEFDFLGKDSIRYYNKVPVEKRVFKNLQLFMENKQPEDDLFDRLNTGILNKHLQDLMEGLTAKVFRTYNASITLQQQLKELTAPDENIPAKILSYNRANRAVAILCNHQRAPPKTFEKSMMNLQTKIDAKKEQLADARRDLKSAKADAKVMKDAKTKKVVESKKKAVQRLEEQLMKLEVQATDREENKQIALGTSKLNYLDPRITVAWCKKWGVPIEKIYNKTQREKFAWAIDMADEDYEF
# Description: as §1, §2, §3, §4, §5
# [4] = tested on: A498 renal cancer cell line; conditions: read-out: In vitro cytotoxicity (IC50) A498 cell line (µM ± SEM), A498, MTT assay
# normal cell line WI 38 = assay: MTT cytotoxicity assay on normal cells; format: cell-based; conditions: Homo sapiens; normal cell line WI 38, MTT assay, ± SEM; read-out: IC50 W138 normal cell line (µM ± SEM)
# Description: After 24 h of culture incubation and supernatants discarded. […] Each test should include a blank containing complete medium without cells. […] Add reconstituted MTT in an amount equal to 10% of the culture medium volume. […] Spectrophotometrically absorbance was measured at a wavelength of 570 nm. […] Results from all experiments were recorded and the percentage of viable cells was calculated.
# human melanoma LOX IMVI [5] = assay: cells
# [6] = tested on: melanoma LOX IMVI cell line; assay: Cell cycle analysis, propidium iodide flow cytometry; format: cell-based, human; conditions: LOX IMVI treated at IC50 concentration
# Description: The effect of compound 3i on cell cycle progression of LOX IMVI cell line was evaluated using Propidium Iodide Flow Cytometry Kit to measure the DNA content according to the reported protocols. The LOX IMVI cells used in this work were obtained from the American Type Culture Collection. Cells were cultured in DMEM (Invitrogen/Life Technologies) supplemented with 10% FBS (Hyclone), 10 µg/ml insulin (Sigma), and 1% penicillin-streptomycin. The remaining chemicals and reagents were all from Sigma or Invitrogen. Growth media was removed, cells washed with warm PBS and aspirated. Adhered cells were detached from media by addition of 5 ml 10% trypsin/EDTA and incubated 2 min in the incubator. The suspended cells harvested, aspirated to a falcon tube, centrifuged at 2000 rpm for 5 min. Cell count performed after suspending the cells into a fresh media and stained with trypan blue, counted and used for preparation of the appropriate number of cells.
# PARP-1 = assay: Western blot of protein expression in LOX IMVI cells; format: cell-based, human; conditions: control = 1
# Description: (§6) To evaluate the expression level of the apoptosis modulatory markers Bax, caspase 3 and PARP-1, western blot was performed as formerly described. Three different groups of LOX IMVI cells were permitted to grow to reach 70–80% confluence in […] flasks. The first group of LOX IMVI cells was treated with compound 3i. […] The media was taken out after 48 h, and cells underwent three rounds of ice-cold PBS washing. RIPA lysis buffer [consisting of Tris-HCl pH 7.6 (25 mM), NaCl (150 mM), EDTA (5 mM), NP-40 or Triton X-100 (1%), sodium deoxycholate (1%), SDS1 (1%)] with the proper phosphatase and a protease inhibitor was used to create the whole-cell lysate for 30 min. After centrifuging the mixture at 12,000 rpm for 20 min and sonicating it for five minutes, the supernatant was collected, split into aliquots, and kept at -80 °C. The Biuret method was used to determine protein content[27],[28]. Proteins in each matched cell lysate were denatured in 2 Laemmli buffer containing 5% β--mercaptoethanol at 95 °C for 5 min. For SDS-PAGE electrophoresis, 20 µg of protein per lane were loaded at 100 volts through a 6% stacking gel, then at 125 volts through a 10% resolving gel for around 2 h, and then transferred to a PVDF membrane using a semidry transfer apparatus (made by Cleaver Scientific) for 25 min. The PVDF membrane was first incubated for one hour at 4 °C in TBS buffer containing 0.1% Tween (TBST) and 5% fat-free milk, then overnight at 4 °C with monoclonal anti-Bax, anti-PARP-1, and anti-caspase-3 as primary antibodies (Cell Signalling Technology) at a dilution of 1:500. Membranes were first treated overnight, then three times washed in TBST buffer, then incubated at room temperature for 60 min with the corresponding HRP (horse radish peroxidase)-linked secondary antibodies (Dako). Then the substrate for the chemiluminescent Western ECL (Perkin Elmer, Waltham, MA) was added to the blot as described by the manufacturer by incubating the membranes with equal volumes of ECL solution A and ECL solution B for 1 min.
# Bax = assay: as above; format: cell-based, human; conditions: control = 1
# Description: as §6
# active caspase-3 = assay: as above; format: cell-based, human; conditions: control = 1
# Description: as §6
# [7] = tested on: melanoma LOX IMVI cell line; assay: Annexin V-FITC/PI apoptosis and necrosis assay; format: cell-based, human; conditions: LOX IMVI treated with IC50 concentration
# Description: Following the manufacturer’s instructions, the Annexin V-FITC Apoptosis Detection Kit (Bio Vision Research Products, USA) was used to analyze cell apoptosis. Briefly, 500 µL of 1X Binding buffer was used to resuspend 1-5 × 10^5 cells that had been harvested by centrifugation. Propidium iodide (PI, 50 mg/ml) and Annexin V-FITC, each administered in 5 µL, were also added. The cells were first incubated for 5 minutes at room temperature in the dark before being analyzed using the Annexin V-FITC binding flow cytometric technique (Ex = 488 nm; Em = 530 nm) with a FITC signal detector (typically FL1) and PI staining with a phycoerythrin emission signal detector (typically FL2). Before exposing adherent cells to Annexin V-FITC, we gently trypsinized and gave them a single wash in serum-containing medium (A.3–5). Cell synchronisation is done using Double-thymidine synchronization method and the used Media is double modifed eagle media (DMEM).
# Cell cycle analysis and detection of apoptosis
# Annexin V-FITC apoptosis assay
# Cell apoptosis were analyzed by the Annexin V-FITC Apoptosis Detection Kit (Bio Vision Research Products, USA). Thereafter, 1-5 x 10^5 cells were collected by centrifugation and resuspend in 500 μl of 1X Binding Buffer. Added 5 μl of Annexin V-FITC and 5 μl of propidium iodide (PI 50mg/ml, optional.). The cells incubated at room temperature for 5 min in the dark; Analyzed by Annexin V-FITC binding flow cytometric method (Ex = 488 nm; Em = 530 nm) using FITC signal detector (usually FL1) and PI staining by the phycoerythrin emission signal detector (usually FL2). For adherent cells, we gently trypsinized and washed cells once with serum-containing media before incubation with Annexin V-FITC (A.3-5). […]
# [8] = tested on: A498 renal cancer cell line; assay: cells; conditions: Homo sapiens
# [9] = tested on: MDA-MB-231 breast adenocarcinoma; set-up: method as in PMID 24287557; conditions: cited from earlier work
# [10] = tested on: MCF-7 breast adenocarcinoma cell line; set-up: method as in PMID 24287557; conditions: cited from earlier work
# [11] = tested on: MDA-MB-231 triple negative breast cancer cell line; set-up: method as in earlier work; conditions: cited from earlier work
# [12] = tested on: A549 lung cancer cell line; set-up: method as in PMID 27614408; conditions: cited from earlier work
# T1 sequence (Q02880 whole entry): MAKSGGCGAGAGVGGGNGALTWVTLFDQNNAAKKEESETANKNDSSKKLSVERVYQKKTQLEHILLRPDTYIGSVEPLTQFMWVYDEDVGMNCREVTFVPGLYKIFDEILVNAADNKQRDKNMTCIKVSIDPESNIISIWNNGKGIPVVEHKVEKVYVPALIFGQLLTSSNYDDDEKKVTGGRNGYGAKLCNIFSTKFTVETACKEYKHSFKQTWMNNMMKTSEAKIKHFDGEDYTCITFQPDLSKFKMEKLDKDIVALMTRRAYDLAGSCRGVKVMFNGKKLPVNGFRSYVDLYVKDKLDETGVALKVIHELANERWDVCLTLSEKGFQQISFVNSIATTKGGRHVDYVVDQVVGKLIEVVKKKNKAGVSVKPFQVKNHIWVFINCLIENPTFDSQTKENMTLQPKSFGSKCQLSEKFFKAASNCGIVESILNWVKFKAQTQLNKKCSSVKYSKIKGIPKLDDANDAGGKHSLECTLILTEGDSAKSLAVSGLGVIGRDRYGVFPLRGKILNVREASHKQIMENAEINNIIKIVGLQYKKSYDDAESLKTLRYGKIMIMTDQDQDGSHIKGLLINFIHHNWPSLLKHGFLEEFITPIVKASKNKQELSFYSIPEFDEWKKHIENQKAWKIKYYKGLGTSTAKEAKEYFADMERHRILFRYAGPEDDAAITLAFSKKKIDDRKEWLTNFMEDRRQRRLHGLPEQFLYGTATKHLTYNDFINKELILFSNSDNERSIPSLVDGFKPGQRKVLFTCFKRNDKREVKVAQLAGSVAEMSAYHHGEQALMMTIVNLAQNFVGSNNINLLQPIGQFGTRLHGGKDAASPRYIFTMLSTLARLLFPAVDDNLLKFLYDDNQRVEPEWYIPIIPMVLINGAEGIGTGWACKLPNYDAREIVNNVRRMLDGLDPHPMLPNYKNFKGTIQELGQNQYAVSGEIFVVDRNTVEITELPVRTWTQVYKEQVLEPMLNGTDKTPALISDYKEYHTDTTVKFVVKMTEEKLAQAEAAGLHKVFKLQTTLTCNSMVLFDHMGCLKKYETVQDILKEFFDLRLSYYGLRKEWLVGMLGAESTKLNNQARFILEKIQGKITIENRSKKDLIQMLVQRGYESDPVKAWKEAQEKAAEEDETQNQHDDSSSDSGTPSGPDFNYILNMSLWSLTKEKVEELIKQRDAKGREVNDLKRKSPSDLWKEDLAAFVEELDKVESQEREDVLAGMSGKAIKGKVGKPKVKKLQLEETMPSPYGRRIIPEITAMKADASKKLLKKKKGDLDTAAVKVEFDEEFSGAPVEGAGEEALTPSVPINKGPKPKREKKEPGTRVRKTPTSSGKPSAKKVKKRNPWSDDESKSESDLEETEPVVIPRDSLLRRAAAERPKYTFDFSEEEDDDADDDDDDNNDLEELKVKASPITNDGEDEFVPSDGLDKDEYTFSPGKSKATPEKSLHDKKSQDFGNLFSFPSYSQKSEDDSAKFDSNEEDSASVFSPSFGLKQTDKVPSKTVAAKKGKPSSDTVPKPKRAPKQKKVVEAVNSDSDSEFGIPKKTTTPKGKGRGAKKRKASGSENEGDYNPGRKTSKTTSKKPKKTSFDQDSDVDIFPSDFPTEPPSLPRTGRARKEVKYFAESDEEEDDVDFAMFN
compound,measurement,setting,value
"O=C(O)c1cn(C2CC2)c2cc(N3CCNCC3)c(F)cc2c1=O [Ciprofloxacin, reference compound]",MIC,[1],0.06 µM
same,MIC,[2]; Gram –ve strain,0.10 µM
same,MIC,"[2]; Klebsiella pneumoniae, ATCC10, Gram –ve strain",0.1 µM
same,MIC,S. aureus ATCC 6538,5.49 µM
same,effect on proliferation of Jurkat cells,Jurkat cells; concentration of 25 µg/mL,inhibit the proliferation
same,apoptosis in Jurkat cells,Jurkat cells; doses higher than 80 µg/mL,induced apoptosis
same,MIC,"E. coli ATCC 25,922",0.04 µM
"N.N.[Cl][Pt][Cl] [Cisplatin, reference compound]",IC50,human melanoma LOX IMVI [3],5.07 ± 0.29 µM
same,IC50,"topoisomerase IIβ; ± SEM, read-out: Topoisomerase II IC50 µM ± SEM",11.3 ± 0.62 µM
same,IC50,topoisomerase Iα,5.71 ± 0.31 µM
same,IC50,[4],7.92 ± 0.45 µM
"COc1cccc2c1C(=O)c1c(O)c3c(c(O)c1C2=O)C[C@@](O)(C(=O)CO)C[C@@H]3O[C@H]1C[C@H](N)[C@H](O)[C@H](C)O1 [Doxorubicin, reference compound]",IC50,topoisomerase IIβ,6.49 ± 0.35 µM
same,IC50,normal cell line WI 38,18.1 ± 0.98 µM
same,viability at 0.4 µM,human melanoma LOX IMVI [5],70.4%
same,viability at 1.6 µM,human melanoma LOX IMVI [5],58.2%
same,viability at 25 µM,human melanoma LOX IMVI [5],42.6%
same,viability at 100 µM,human melanoma LOX IMVI [5],30.4%
same,IC50,human melanoma LOX IMVI [5]; read-out: In vitro cytotoxicity (IC50) LOX IMVI (µM ± SEM),7.03 ± 0.4 µM
same,%G0-G1 DNA content,[6],37.85%
same,%G2/M DNA content,[6],5.94%
same,%Pre-G1 DNA content,[6],46.29%
same,%S DNA content,[6],56.21%
same,PARP-1 OD,PARP-1,0.38
same,Bax OD,Bax,6.56
same,Caspace-3 Optical density (OD),active caspase-3,5.67
same,Apoptosis Early,[7],1.94%
same,Apoptosis Late,[7],28.53%
same,Apoptosis Total,[7],46.29%
same,Necrosis,[7],15.82%
same,viability at 0.4 µM,[8]; A498,64.5%
same,viability at 1.6 µM,[8]; A498,55.3%
same,viability at 25 µM,[8]; A498,37.6%
same,viability at 100 µM,[8]; A498,26.6%
same,IC50,"[8]; A498, read-out: In vitro cytotoxicity (IC50) A498 cell line (µM ± SEM)",3.59 ± 0.2 µM
Cc1ccc(C(=O)CN2C(=O)S/C(=C\C3=C(Cl)c4cc(C)c(C)cc4CCC3)C2=O)cc1 [IV],IC50,[9],13.39 ± 0.04 µM
same,IC50,[10],1.91 ± 0.03 µM
O=C(CN1C(=O)S/C(=C\c2cc(-c3ccc(Cl)cc3)c3[nH]c4ccccc4c3c2)C1=O)N1CCOCC1 [VI],IC50,[11],0.97 ± 0.13 µM
Cn1c(/C=C2\SC(=O)N(CC(=O)Nc3nc(-c4ccccc4)cs3)C2=O)nc2ccccc21 [V],IC50,[12],11.5 ± 1.46 µM
